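Step 1: Grow cells in 96-well plates. Step 2: Expose to compound for 48 hours at 5 concentrations. Step 3: Interpolate endpoints linearly; if unreached, use highest concentration. GI50 is the concentration that inhibits growth by half.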 Calls of active or inactive are those of the source. No stated cut-off is given here; in the data, active = GI50 up to about 1.1 µM and inactive = higher.
Legend:
Assay in all cases: NCI anticancer screen, dose series, 48 h
BT-549 = tested on: BT-549
CCRF-CEM = tested on: CCRF-CEM
HCC 2998 = tested on: HCC 2998
HCT-116 = tested on: HCT-116
Hs-578T = tested on: Hs-578T
LOX IMVI = tested on: LOX IMVI
MDA-MB-231 = tested on: MDA-MB-231
Malme-3M = tested on: Malme-3M
NCI-H23 = tested on: NCI-H23
NCI-H460 = tested on: NCI-H460
NCI/ADR-RES = tested on: NCI/ADR-RES
OVCAR-8 = tested on: OVCAR-8
PC-3 = tested on: PC-3
SK-MEL-28 = tested on: SK-MEL-28
SK-MEL-2 = tested on: SK-MEL-2
SN12C = tested on: SN12C
SNB-19 = tested on: SNB-19
U-251 = tested on: U-251
ACHN = tested on: ACHN

Measured: GI50

[N-]=[N+]=NC[C@H]1OCO[C@H](CN=[N+]=[N-])[C@@H](OCCOCCCl)[C@@H]1OCCOCCCl
inactive: BT-549 > 100 µM | CCRF-CEM > 100 µM | HCC 2998 > 100 µM | HCT-116 > 100 µM | Hs-578T 80 µM | LOX IMVI > 100 µM | MDA-MB-231 > 100 µM | Malme-3M > 100 µM | NCI-H23 > 100 µM | NCI-H460 > 100 µM | NCI/ADR-RES > 100 µM | OVCAR-8 > 100 µM | PC-3 > 100 µM | SK-MEL-28 > 100 µM | SK-MEL-2 > 100 µM | SN12C > 100 µM | SNB-19 > 100 µM | U-251 > 100 µM

CO/N=C(/C(=O)N(C(=O)/C(=N/OC)c1csc(NC(c2ccccc2)(c2ccccc2)c2ccccc2)n1)n1cnn(CC(=O)OC(C)(C)C)c1=O)c1csc(NC(c2ccccc2)(c2ccccc2)c2ccccc2)n1
inactive: ACHN > 10 µM | BT-549 2.16 µM | CCRF-CEM > 10 µM | HCC 2998 > 10 µM | HCT-116 > 10 µM | Hs-578T > 10 µM | LOX IMVI > 10 µM | MDA-MB-231 > 10 µM | Malme-3M > 10 µM | NCI-H23 > 10 µM | NCI-H460 > 10 µM | NCI/ADR-RES > 10 µM | OVCAR-8 > 10 µM | PC-3 1.87 µM | SK-MEL-28 > 10 µM | SK-MEL-2 2.31 µM | SN12C > 10 µM | SNB-19 > 10 µM | U-251 > 10 µM

Nc1ncnc2c1ncn2[C@@H]1C[C@@H]1CO
inactive: ACHN > 100 µM | BT-549 > 100 µM | CCRF-CEM > 100 µM | HCC 2998 > 100 µM | HCT-116 > 100 µM | Hs-578T > 100 µM | LOX IMVI > 100 µM | MDA-MB-231 > 100 µM | Malme-3M > 100 µM | NCI-H23 > 100 µM | NCI-H460 > 100 µM | NCI/ADR-RES > 100 µM | OVCAR-8 > 100 µM | PC-3 > 100 µM | SK-MEL-2 > 100 µM | SN12C > 100 µM | SNB-19 > 100 µM | U-251 > 100 µM

CCOC(=O)c1nnsc1NC(=O)Nc1ccc(Cc2ccc(NC(=O)Nc3snnc3C(=O)OCC)cc2)cc1
inactive: ACHN > 100 µM | BT-549 > 100 µM | CCRF-CEM > 100 µM | HCC 2998 > 100 µM | HCT-116 30.8 µM | Hs-578T 69.5 µM | MDA-MB-231 28.2 µM | Malme-3M 37.2 µM | NCI-H23 43.6 µM | NCI-H460 25.6 µM | NCI/ADR-RES > 100 µM | OVCAR-8 27.5 µM | PC-3 66.4 µM | SK-MEL-28 > 100 µM | SK-MEL-2 > 100 µM | SN12C 28.3 µM | SNB-19 39.1 µM | U-251 31.3 µM

From ChEMBL document CHEMBL1201862, “PubChem BioAssay data set” (2004)
